In the NIST ThermoML archive (doi:10.1016/j.fluid.2014.09.015):

Settings: Liquid, Closed cell (Static) method

CC(O)CO (stereo not given) [1,2-propanediol]
Settings | vapor or sublimation pressure [kPa]
350.15 K | 0.84
355.15 K | 1.131
360.15 K | 1.506
365.15 K | 1.987
370.15 K | 2.596
375.15 K | 3.361
380.15 K | 4.316
385.15 K | 5.496
390.15 K | 6.946
395.15 K | 8.715
400.15 K | 10.86
405.15 K | 13.44
410.15 K | 16.53
415.15 K | 20.22
420.15 K | 24.59
